Data as given in article PMC10647704 (Molecules, 2023).
Values after ≈ are worked out from the molar mass of the structure shown. Where two headings read alike, the source gives them in different places.

Assays:
[1] = test system: C. albicans S1 (FLU-sensitive); test: Turbidity assay (MIC and IC50) in C. albicans S1; format: cell-based
[2] = test system: C. albicans S1 (FLU-sensitive); test: Colorimetric resazurin assay (MIC) in C. albicans S1; format: cell-based; settings: read-out: MIC, colorimetric assay
[3] = test system: human epidermoid carcinoma cells KB-3-1; test: MTT cell viability assay in KB-3-1 cells; format: cell-based; settings: for IC50: 24 h incubation, 48 h of treatment; for fungal selectivity (ratio of the IC50 in KB-3-1 cells to the IC50 in S1 cells): KB-3-1 vs C. albicans S1
Description: MTT assays were then performed to assess the effect of the test compounds on human epidermoid carcinoma cells KB-3-1 (24 h incubation).
The cell viability assay was performed in human epidermoid carcinoma cells KB-3-1. Initially, 5 × 10^3 cells were seeded into each well in a 96-well plate. […] After 48 h of treatment, 20 µL of MTT solution (5 mg/mL) was added to each well and allowed to incubate for 3.5 h. Subsequently, DMSO was added to each well upon removal of the MTT solution. The Abs570nm values were then measured using an accuSkanTM GO UV/VIS Microplate Spectrophotometer (Fisher Sci., Fair Lawn, NJ, USA).

[4] = biological target: Na+, K+-ATPase (purified from pig kidney outer medulla) (Sus scrofa, UniProt P05024); test: Na+,K+-ATPase activity assay; format: biochemical; settings: test concentrations similar to the MIC concentrations; micromolar range; prevented by 5 mM GSH
[5] = biological target: yeast plasma membrane H+-ATPase (Pma1p) (Candida albicans, UniProt P28877); test: Medium acidification assay in C. albicans S1; format: cell-based; settings: change in pH at 30 min, highest test concentration 30 µM, mean ± SEM of three experiments
yeast plasma membrane H+-ATPase (Pma1p), sequence (P28877 whole entry): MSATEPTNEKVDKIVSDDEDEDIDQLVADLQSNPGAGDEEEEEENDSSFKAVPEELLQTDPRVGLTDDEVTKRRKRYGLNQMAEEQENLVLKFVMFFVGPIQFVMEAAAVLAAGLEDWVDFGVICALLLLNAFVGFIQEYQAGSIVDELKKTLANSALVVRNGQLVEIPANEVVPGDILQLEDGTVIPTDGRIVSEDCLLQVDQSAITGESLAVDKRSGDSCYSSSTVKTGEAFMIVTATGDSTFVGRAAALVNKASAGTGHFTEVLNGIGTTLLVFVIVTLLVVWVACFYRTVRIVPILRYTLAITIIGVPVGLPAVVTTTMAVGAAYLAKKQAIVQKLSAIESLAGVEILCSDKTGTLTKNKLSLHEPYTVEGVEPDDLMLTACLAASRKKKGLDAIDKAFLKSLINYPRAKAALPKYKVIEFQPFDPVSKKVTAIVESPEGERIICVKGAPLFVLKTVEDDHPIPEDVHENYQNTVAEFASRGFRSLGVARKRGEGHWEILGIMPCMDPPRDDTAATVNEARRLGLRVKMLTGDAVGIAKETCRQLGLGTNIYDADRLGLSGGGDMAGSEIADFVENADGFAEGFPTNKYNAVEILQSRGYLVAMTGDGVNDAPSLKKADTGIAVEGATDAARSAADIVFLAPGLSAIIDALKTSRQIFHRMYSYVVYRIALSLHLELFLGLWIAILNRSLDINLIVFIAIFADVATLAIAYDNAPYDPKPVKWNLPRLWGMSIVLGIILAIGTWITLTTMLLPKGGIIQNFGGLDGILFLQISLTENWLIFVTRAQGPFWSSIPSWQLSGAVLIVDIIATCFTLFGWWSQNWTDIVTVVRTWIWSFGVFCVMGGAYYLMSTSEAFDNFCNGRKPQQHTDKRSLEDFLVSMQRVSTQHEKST

[6] = test system: reconstructed human epidermis; test: In vitro skin irritation test on reconstructed human epidermal model (EpiDerm, OECD TG 439); format: cell-based
Description: The in vitro skin irritation test was performed using MatTek Corporation’s Reconstructed Human Epidermal Model EpiDerm™ following the manufacturer’s instructions, which fulfills the criteria set forth in the Organization for Economic Co-operation and Development.
Briefly, we applied either 30 µL of CHB4 or CHB6, PBS, 0.1% DMSO or 30 µL of 1% Triton-X100 (positive control for irritation). All plates were then incubated in a humidified environment for an additional 35 ± 1 min at 37 ± 1 °C, 5 ± 1% CO2, and 90% ± 10% relative humidity (RH). Once the 1 h incubation period was completed for the dosed tissues, all plates were removed from the incubator and placed in a sterile hood. The tissues were then rinsed 15 times with sterile PBS. The blotted tissue inserts were then incubated for 42 ± 2 h after which time the cell viability was determined using the MTT assay as described.

[7] = test system: C. albicans S1; test: Mouse model of vulvovaginal candidiasis (VVC); settings: for expression of MPO in vaginal tissue (IHC): day 6, compared to 6th day infected and vehicle groups; for PMN counts of vaginal tissues: day 6, compared to control and vehicle group; for histopathology of vaginal tissue (H&E): day 6, infected and treated mice; for gross markers of the health of the mice: intravaginal suspension, over the course of the study; for Log CFU/100 μL / Remaining C. albicans S1 Compared to Control (100%): vaginal lavage day 6, intravaginal once daily days 3-5, CHB 12.5 mg/kg, MICO 2% cream
[8] = test system: breast cancer cell line MCF-7; design: method as in PMID 31683558; settings: breast cancer cell line MCF-7 ref 23; cited from earlier work
[9] = Abs600nm at 48 h; read-out: Turbidity Assay IC50 C. albicans S1
[10] = C. albicans S1, 24 h; for FLU the lowest concentration causing 70% decrease in turbidity; read-out: MIC, turbidity assay
[11] = C. albicans S1, 48 h; for FLU the lowest concentration causing 70% decrease in turbidity; read-out: MIC, turbidity assay
[12] = Candida albicans, 24 h; read-out: MIC, turbidity assay
[13] = Candida albicans, 48 h, Abs600nm at 48 h; read-out: Turbidity Assay IC50 C. albicans S1
[14] = Candida albicans, 48 h; read-out: MIC, turbidity assay
[15] = Candida albicans, C. albicans S1, 24 h, resazurin
[16] = Candida albicans, C. albicans S1, 48 h, resazurin
[17] = Homo sapiens, KB 3-1, KB-3-1 cells, read-out: MTT Assay IC50 KB-3-1 Cells
[18] = KB-3-1 cells, read-out: MTT Assay IC50 KB-3-1 Cells
[19] = Candida albicans, 24 h, read-out: MIC, turbidity assay
[20] = Candida albicans, 48 h, read-out: MIC, turbidity assay
[21] = Candida albicans, 48 h, read-out: Turbidity Assay IC50 C. albicans S1
[22] = Homo sapiens, KB 3-1, read-out: MTT Assay IC50 KB-3-1 Cells, KB-3-1 cells
[23] = read-out: IC50MA (medium acidification)
[24] = Candida albicans; Abs600nm at 48 h; read-out: Turbidity Assay IC50 C. albicans S1

| SMILES | MIC [1, 10] | MIC [1, 11] | MIC [1, 12] | MIC [1, 14] | MIC [2, 15] | MIC [2, 16] | IC50 [3, 17] | inhibitory activity towards the Na+, K+-ATPase [4] | MIC [1, 19] | MIC [1, 20] | IC50 [1, 21] | MIC ([2]; Candida albicans, 24 h) | MIC ([2]; Candida albicans, 48 h) | IC50 [3, 22] | IC50 [5, 23] | histopathology of vaginal tissue (H&E) [7] | Log CFU/100 μL [7] | Remaining C. albicans S1 Compared to Control (100%) [7] | IC50 [1, 24] | IC50 ([5]; IC50MA (medium acidification)) | other results |
| --- | --- | --- | --- | --- | --- | --- | --- | --- | --- | --- | --- | --- | --- | --- | --- | --- | --- | --- | --- | --- | --- |
| O=c1c2ccccc2[se]n1-c1ccccc1 [EB, Ebselen, reference compound] | 25.0 µM (≈ 6.85 µg/mL) | 25.0 µM (≈ 6.85 µg/mL) | 25 µM (≈ 6.85 µg/mL) | 25 µM (≈ 6.85 µg/mL) | 25 µM (≈ 6.85 µg/mL) | 25 µM (≈ 6.85 µg/mL) | 89.7 µM | possess inhibitory activity | – | – | – | – | – | – | – | – | – | – | – | – | IC50 [1, 9]: 17.1 ± 1.01 µM; IC50 [1, 13]: ~17 µM; MIC ([2]; C. albicans S1, 24 h, resazurin): 25.0 µM (≈ 6.85 µg/mL); MIC ([2]; C. albicans S1, 48 h, resazurin): 25.0 µM (≈ 6.85 µg/mL); IC50 [3, 18]: 89.7 ± 3.42 µM |
| C[C@H]1CC[C@@H]2[C@H]([C@@H]1n1[se]c3ccccc3c1=O)C2(C)C [CHB4] | – | – | – | – | – | – | – | possess inhibitory activity | 12.5 µM (≈ 4.18 µg/mL) | 12.5 µM (≈ 4.18 µg/mL) | 7.7 ± 0.1 µM | 6.3 µM (≈ 2.11 µg/mL) | 12.5 µM (≈ 4.18 µg/mL) | 17.9 ± 3.1 µM | 13.8 ± 1.1 µM | slight epithelial distress | 4.448 Log CFU/100 μL | 6.607% | – | – | fungal selectivity (ratio of the IC50 in KB-3-1 cells to the IC50 in S1 cells) [3]: 2.3; skin irritation ([6]; test concentrations up to 100 µM): no skin irritation; expression of MPO in vaginal tissue (IHC) [7]: decrease; PMN counts of vaginal tissues [7]: less PMN counts compared to control and vehicle group; gross markers of the health of the mice [7]: without affecting any gross markers of the health of the mice |
| OC(Cn1cncn1)(Cn1cncn1)c1ccc(F)cc1F [FLU, fluconazole, reference compound] | 25.0 µM (≈ 7.66 µg/mL) | 25.0 µM (≈ 7.66 µg/mL) | 25 µM (≈ 7.66 µg/mL) | 25 µM (≈ 7.66 µg/mL) | – | – | > 1000 µM | – | – | – | – | – | – | – | > 30 µM | – | – | – | – | – | IC50 [1, 9]: 6.01 ± 0.1 µM; IC50 [1, 13]: ~6 µM |
| CC1(C)C2CCC(Cn3[se]c4ccccc4c3=O)C1C2 (single isomer, unassigned; (-)) [CHB3] | 25.0 µM (≈ 8.36 µg/mL) | 25.0 µM (≈ 8.36 µg/mL) | – | – | – | – | – | – | 25 µM (≈ 8.36 µg/mL) | 25 µM (≈ 8.36 µg/mL) | 18.1 ± 0.2 µM | 12.5 µM (≈ 4.18 µg/mL) | 25 µM (≈ 8.36 µg/mL) | > 60 µM | > 30 µM | – | – | – | – | – | IC50 ([3]; read-out: MTT Assay IC50 KB-3-1 Cells, KB-3-1 cells): 65.7 ± 4.4 µM |
| Clc1ccc(COC(Cn2ccnc2)c2ccc(Cl)cc2Cl)c(Cl)c1 (centres unmarked) [Miconazole (MICO), miconazole, reference compound] | – | – | – | – | – | – | – | – | – | – | – | – | – | – | – | slight epithelial distress | 4.470 Log CFU/100 μL | 6.950% | – | – | – |
| C[C@H]1[C@H](n2[se]c3ccccc3c2=O)C[C@@H]2C[C@H]1C2(C)C [CHB2] | – | – | 12.5 µM (≈ 4.18 µg/mL) | 12.5 µM (≈ 4.18 µg/mL) | 12.5 µM (≈ 4.18 µg/mL) | 12.5 µM (≈ 4.18 µg/mL) | 25.5 ± 1.9 µM | – | – | – | – | – | – | – | – | – | – | – | 7.6 ± 0.1 µM | > 30 µM | – |
| C[C@@H]1C[C@H]2[C@@H](C[C@H]1n1[se]c3ccccc3c1=O)C2(C)C [CHB5] | – | – | 25 µM (≈ 8.36 µg/mL) | 12.5 µM (≈ 4.18 µg/mL) | 12.5 µM (≈ 4.18 µg/mL) | 25 µM (≈ 8.36 µg/mL) | > 90 µM | – | – | – | – | – | – | – | – | – | – | – | 7.5 ± 0.1 µM | > 30 µM | IC50 [3, 18]: 94.1 ± 4.7 µM |
| C[C@@H]1[C@@H](n2[se]c3ccccc3c2=O)C[C@H]2C[C@@H]1C2(C)C [CHB1] | – | – | 12.5 µM (≈ 4.18 µg/mL) | 12.5 µM (≈ 4.18 µg/mL) | 12.5 µM (≈ 4.18 µg/mL) | 6.3 µM (≈ 2.11 µg/mL) | 28.1 ± 1.5 µM | – | – | – | – | – | – | – | – | – | – | – | 7.3 ± 0.1 µM | > 30 µM | – |
| CC(C)[C@@H]1CC[C@@H](C)C[C@H]1n1[se]c2ccccc2c1=O [CHB6, (−)-N-(1R,2S,5R)-menthyl-1,2-benzizoselenazol-3(2H)-one] | – | – | – | – | – | – | – | possess inhibitory activity | 3.1 µM (≈ 1.04 µg/mL) | 3.1 µM (≈ 1.04 µg/mL) | 1.8 ± 0.1 µM | 3.1 µM (≈ 1.04 µg/mL) | 3.1 µM (≈ 1.04 µg/mL) | 48.5 ± 5.9 µM | > 30 µM | slight epithelial distress | 3.655 Log CFU/100 μL | 1.064% | – | – | fungal selectivity (ratio of the IC50 in KB-3-1 cells to the IC50 in S1 cells) [3]: 26.9; skin irritation ([6]; test concentrations up to 50 µM): no skin irritation; IC50 [8]: 11.9 ± 0.2 µM; expression of MPO in vaginal tissue (IHC) [7]: decrease; PMN counts of vaginal tissues [7]: less PMN counts compared to control and vehicle group; gross markers of the health of the mice [7]: without affecting any gross markers of the health of the mice |
